Results from patent publication US20240376097A1, “BCL-2 Inhibitor” (BeiGene Ltd., priority 2020, published 2024).

How the values were obtained:
[1] = molecular target: recombinant human Bcl-2-G101V protein (Homo sapiens (Human), UniProt P10415, G101V); experiment: Bcl-2-G101V TR-FRET Assay; type: binding; conditions: Bcl-2 G101V mutant, TR-FRET; read-out: Biochemical assay (IC50, nM) Bcl-2 G101V
Procedure, shortened: (§1)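 IC50 values derive from four-parameter logistic fitting of percent inhibition data. That inhibition of ligand binding to Bcl-2-G101V is computed from the 490 nm/520 nm TR-FRET ratio under 337 nm excitation, over a rising compound concentration series.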

[2] = tested on: recombinant human Bcl-2-G101V protein; experiment: Bcl-2-G101V TR-FRET Assay; type: binding; conditions: for ratio of IC50 of Bcl-2 G101V/Bcl-2 wt, compared with Example F132b in WO2019210828 and ABT-199 (venetoclax): comparison in words; for Ratio of Bcl-2 G101V/WT: ratio of biochemical IC50 Bcl-2 G101V / Bcl-2 WT
Procedure, shortened: as §1

[3] = tested on: RS4;11 (BCL-2 dependent acute lymphoblastic leukemia cell line); experiment: RS4;11 Cell Proliferation Assay; type: cell-based; conditions: Homo sapiens, RS4;11 cells, read-out: Cellular proliferation assay (IC50, nM) RS4
Procedure, shortened: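 Viability measured via CellTiter-Glo luminescence after a 48 h, 37 °C exposure to compounds (10 points, highest 1 μM). Seeding was 50,000 RS4;11 cells per well in 10% FBS RPMI-1640; IC50 given as mean.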

[4] = tested on: BCL-2 G101V knock-in cell line H96 (derive from RS4;11); experiment: Bcl 2-G101V Knock-In RS4;11 Cell Proliferation Assay; type: cell-based; conditions: Homo sapiens, RS4-11, 48 h, RS4;11 Bcl-2 G101V knock-in clone H96, 48 hrs, CellTiter-GLO, read-out: Cellular proliferation assay (IC50, nM) RS4
Procedure, shortened: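 CellTiter-Glo luminescence after 48 h, 37 °C compound treatment (10 concentrations, maximum 1 μM or 10 μM) gave mean IC50 values. Cells were 50,000 per well of H96, a BCL2-G101V knock-in single clone derived from RS4;11 by Cas9 editing.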

[5] = Metabolic Stability Study, liver microsome incubation (mouse); type: in vitro ADME; conditions: mouse liver microsomes 0.5 mg/mL, 1 μM compound, NADPH; for half-life at 1 μM: NA^# = very stable, beyond the detection limits, read-out: T1/2 (min) mouse; for microsomal CLint at 1 μM: read-out: CLint (μL × min^−1 × mg^−1) mouse
Procedure, shortened: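 Test compounds (1 μM) incubated at 37° C with 0.5 mg/mL liver microsomes plus NADPH regenerating system; samples quenched at 0, 30 and 60 min. Parent loss measured by LC-MS/MS, giving CLint and T1/2, with CLint normalised to microsomal protein concentration.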

COc1ccc(CN2CCN(C3CC4(C3)CN(c3ccc(C(=O)NS(=O)(=O)c5ccc(NC[C@H]6CC[C@](C)(O)CC6)c([N+](=O)[O-])c5)c(Oc5cnc6[nH]ccc6c5)c3)C4)[C@H](c3ccccc3C(C)C)C2)cc1OC [Example 145, 2-((1H-pyrrolo[2,3-b]pyridin-5-yl)oxy)-4-(6-((R)-4-(3,4-dimethoxybenzyl)-2-(2-isopropylphenyl)piperazin-1-yl)-2-azaspiro[3.3]heptan-2-yl)-N-((4-((((1r,4r)-4-hydroxy-4-methylcyclohexyl)methyl)amino)-3-nitrophenyl)sulfonyl)benzamide]
IC50 [1]: 0.084 nM
ratio of IC50 of Bcl-2 G101V/Bcl-2 wt, compared with Example F132b in WO2019210828 and ABT-199 (venetoclax) [2]: much lower
Ratio of Bcl-2 G101V/WT [2]: 3
IC50 [3]: 0.104 nM
IC50 [4]: 0.23 nM
half-life at 1 μM [5]: 196 min
microsomal CLint at 1 μM [5]: 7.1 µL/min/mg

CC(C)c1ccccc1C1CN(Cc2cc(F)cc(F)c2)CCN1C1CC2(CCN(c3ccc(C(=O)NS(=O)(=O)c4ccc(NC[C@H]5CC[C@](C)(O)CC5)c([N+](=O)[O-])c4)c(Oc4cnc5[nH]ccc5c4)c3)CC2)C1 (stereo partly drawn) [Example 51, 2-((1H-pyrrolo[2,3-b]pyridin-5-yl)oxy)-4-(2-(4-(3,5-difluorobenzyl)-2-(2-isopropylphenyl)piperazin-1-yl)-7-azaspiro[3.5]nonan-7-yl)-N-((4-((((1r,4r)-4-hydroxy-4-methylcyclohexyl)methyl)amino)-3-nitrophenyl)sulfonyl)benzamide]
IC50 [1]: 1.6 nM
Ratio of Bcl-2 G101V/WT [2]: 3.8
IC50 [3]: 0.49 nM
IC50 [4]: 4 nM
half-life at 1 μM [5]: 306 min
microsomal CLint at 1 μM [5]: 4.5 µL/min/mg

COc1ccc(CN2CCN(C3CC4(CCN(c5ccc(C(=O)NS(=O)(=O)c6ccc(NC[C@H]7CC[C@](C)(O)CC7)c([N+](=O)[O-])c6)c(Oc6cnc7[nH]cc(F)c7c6)c5)CC4)C3)[C@H](c3ccccc3C(C)C)C2)cc1OC [Example 127, 4-(2-((R)-4-(3,4-dimethoxybenzyl)-2-(2-isopropylphenyl)piperazin-1-yl)-7-azaspiro[3.5]nonan-7-yl)-2-((3-fluoro-1H-pyrrolo[2,3-b]pyridin-5-yl)oxy)-N-((4-((((1r,4r)-4-hydroxy-4-methylcyclohexyl)methyl)amino)-3-nitrophenyl)sulfonyl)benzamide]
IC50 [1]: 0.13 nM
ratio of IC50 of Bcl-2 G101V/Bcl-2 wt, compared with Example F132b in WO2019210828 and ABT-199 (venetoclax) [2]: much lower
Ratio of Bcl-2 G101V/WT [2]: 1.8
IC50 [3]: 0.167 nM
IC50 [4]: 0.367 nM
half-life at 1 μM [5]: 182 min
microsomal CLint at 1 μM [5]: 7.63 µL/min/mg

COc1cc(CN2CCN(C3CC4(C3)CN(c3ccc(C(=O)NS(=O)(=O)c5ccc(NC[C@H]6CC[C@](C)(O)CC6)c([N+](=O)[O-])c5)c(Oc5cnc6[nH]cc(F)c6c5)c3)C4)[C@H](c3ccccc3C(C)C)C2)ccc1C [Example 274, 2-((3-fluoro-1H-pyrrolo[2,3-b]pyridin-5-yl)oxy)-N-((4-((((1r,4r)-4-hydroxy-4-methylcyclohexyl)methyl)amino)-3-nitrophenyl)sulfonyl)-4-(6-((R)-2-(2-isopropylphenyl)-4-(3-methoxy-4-methylbenzyl)piperazin-1-yl)-2-azaspiro[3.3]heptan-2-yl) benzamide]
IC50 [1]: 0.85 nM
Ratio of Bcl-2 G101V/WT [2]: 1.5
IC50 [3]: 0.15 nM
IC50 [4]: 0.29 nM
half-life at 1 μM [5]: 289 min
microsomal CLint at 1 μM [5]: 4.8 µL/min/mg

CC(C)c1ccccc1C1CN(Cc2ccc(Cl)cc2)CCN1C1CC2(CCN(c3ccc(C(=O)NS(=O)(=O)c4ccc(NC[C@H]5CC[C@](C)(O)CC5)c([N+](=O)[O-])c4)c(Oc4cnc5[nH]ccc5c4)c3)CC2)C1 (stereo partly drawn) [Example 29, 2-((1H-pyrrolo[2,3-b]pyridin-5-yl)oxy)-4-(2-(4-(4-chlorobenzyl)-2-(2-isopropylphenyl)piperazin-1-yl)-7-azaspiro[3.5]nonan-7-yl)-N-((4-((((1r,4r)-4-hydroxy-4-methylcyclohexyl)methyl)amino)-3-nitrophenyl)sulfonyl)benzamide]
IC50 [1]: 1.5 nM
Ratio of Bcl-2 G101V/WT [2]: 5.2
IC50 [3]: 0.43 nM
IC50 [4]: 2.95 nM
half-life at 1 μM [5]: 2360 min
microsomal CLint at 1 μM [5]: 0.6 µL/min/mg

CC(C)c1ccccc1C1CN(Cc2ccc(F)cc2)CCN1C1CC2(CCN(c3ccc(C(=O)NS(=O)(=O)c4ccc(NC[C@H]5CC[C@](C)(O)CC5)c([N+](=O)[O-])c4)c(Oc4cnc5[nH]ccc5c4)c3)CC2)C1 (stereo partly drawn) [Example 28, 2-((1H-pyrrolo[2,3-b]pyridin-5-yl)oxy)-4-(2-(4-(4-fluorobenzyl)-2-(2-isopropylphenyl)piperazin-1-yl)-7-azaspiro[3.5]nonan-7-yl)-N-((4-((((1r,4r)-4-hydroxy-4-methylcyclohexyl)methyl)amino)-3-nitrophenyl)sulfonyl)benzamide]
IC50 [1]: 0.82 nM
Ratio of Bcl-2 G101V/WT [2]: 3.6
IC50 [3]: 0.39 nM
IC50 [4]: 2.69 nM
half-life at 1 μM [5]: 200 min
microsomal CLint at 1 μM [5]: 6.9 µL/min/mg

COc1cc(CN2CCN(C3CC4(C3)CN(c3ccc(C(=O)NS(=O)(=O)c5ccc(NC[C@H]6CC[C@](C)(O)CC6)c([N+](=O)[O-])c5)c(Oc5cnc6[nH]cc(F)c6c5)c3)C4)[C@H](c3ccccc3C(C)C)C2)ccc1OC1CC1 [Example 321, 4-(6-((R)-4-(4-cyclopropoxy-3-methoxybenzyl)-2-(2-isopropylphenyl)piperazin-1-yl)-2-azaspiro[3.3]heptan-2-yl)-2-((3-fluoro-1H-pyrolo[2,3-b]pyridin-5-yl)oxy)-N-((4-((((1r,4r)-4-hydroxy-4-methylcyclohexy)methyl)amino)-3-nitrophenyl)sulfonyl)benzamide]
IC50 [1]: 0.35 nM
Ratio of Bcl-2 G101V/WT [2]: 2
IC50 [3]: 0.22 nM
IC50 [4]: 0.24 nM
half-life at 1 μM [5]: 628 min
microsomal CLint at 1 μM [5]: 2.2 µL/min/mg

COc1ccc(CN2CCN(C3CC4(C3)CN(c3ccc(C(=O)NS(=O)(=O)c5ccc(NC[C@H]6CC[C@](C)(O)CC6)c([N+](=O)[O-])c5)c(Oc5cnc6[nH]cc(F)c6c5)c3)C4)[C@H](c3ccccc3C(C)C)C2)cc1OC [Example 141a, 4-(6-((R)-4-(3,4-dimethoxybenzyl)-2-(2-isopropylphenyl)piperazin-1-yl)-2-azaspiro[3.3]heptan-2-yl)-2-((3-fluoro-1H-pyrrolo[2,3-b]pyridin-5-yl)oxy)-N-((4-((((1r,4r)-4-hydroxy-4-methylcyclohexyl)methyl)amino)-3-nitrophenyl)sulfonyl)benzamide]
IC50 [1]: 0.13 nM
ratio of IC50 of Bcl-2 G101V/Bcl-2 wt, compared with Example F132b in WO2019210828 and ABT-199 (venetoclax) [2]: much lower
Ratio of Bcl-2 G101V/WT [2]: 2.5
IC50 [3]: 0.166 nM
IC50 [4]: 0.268 nM
half-life at 1 μM [5]: 18100 min
microsomal CLint at 1 μM [5]: 0.07 µL/min/mg

COc1ccc(CN2CCN(C3CC4(CCN(c5ccc(C(=O)NS(=O)(=O)c6ccc(NC[C@H]7CC[C@](C)(O)CC7)c([N+](=O)[O-])c6)c(Oc6cnc7[nH]ccc7c6)c5)CC4)C3)[C@H](c3ccccc3C(C)C)C2)cc1OC [Example 81a, 2-((1H-pyrrolo[2,3-b]pyridin-5-yl)oxy)-4-(2-((R)-4-(3,4-dimethoxybenzyl)-2-(2-isopropylphenyl)piperazin-1-yl)-7-azaspiro[3.5]nonan-7-yl)-N-((4-((((1r,4r)-4-hydroxy-4-methylcyclohexyl)methyl)amino)-3-nitrophenyl)sulfonyl)benzamide]
IC50 [1]: 0.075 nM
Ratio of Bcl-2 G101V/WT [2]: 2.0
IC50 [3]: 0.146 nM
IC50 [4]: 0.48 nM
half-life at 1 μM [5]: 219 min
microsomal CLint at 1 μM [5]: 6.32 µL/min/mg

COc1cc(CN2CCN(C3CC4(C3)CN(c3ccc(C(=O)NS(=O)(=O)c5ccc(NC[C@H]6CC[C@](C)(O)CC6)c([N+](=O)[O-])c5)c(Oc5cnc6[nH]cc(F)c6c5)c3)C4)[C@H](c3ccccc3C(C)C)C2)cc(F)c1OC [Example 230, 2-((3-fluoro-1H-pyrrolo[2,3-b]pyridin-5-yl)oxy)-4-(6-((R)-4-(3-fluoro-4,5-dimethoxybenzyl)-2-(2-isopropylphenyl)piperazin-1-yl)-2-azaspiro[3.3]heptan-2-yl)-N-((4-((((1r,4r)-4-hydroxy-4-methylcyclohexyl)methyl)amino)-3-nitrophenyl)sulfonyl)benzamide]
IC50 [1]: 0.52 nM
Ratio of Bcl-2 G101V/WT [2]: 2.8
IC50 [3]: 0.1 nM
IC50 [4]: 0.28 nM
half-life at 1 μM [5]: 183 min
microsomal CLint at 1 μM [5]: 7.6 µL/min/mg
